# In patent US7910624B1, “Compositions for the treatment of blood disorders” (The Trustees of Boston University, priority 1995, dated 2011):
# Legend:
# [1] = test system: Human erythroleukemia cells; assay: Fetal globin mRNA in erythroleukemia cells by primer extension; type: cell-based; conditions: 1.0 mM, 4 days
# Method: Compounds were tested for increased expression of the human globin genes in human erythroid cells. In addition, as the cell line being tested is a tumor cell line, the assay determines if differentiation, a growth inhibitory effect on cancer cells, is induced by the compounds tested. Human erythroleukemia cells were cultured in RPMI media with 10% fetal calf serum alone or with treatment with various compounds for 4 days. Globin mRNA was quantitated by primer extension analysis. Fetal globin mRNA was compared to the amount of fetal globin mRNA produced in untreated cells during the same culture period. The quantitation was expressed as a percent of alpha globin mRNA which was constant. Results are expressed proportional to α-globin mRNA (Table 3).
# [2] = test system: anemic juvenile baboons; assay: In vivo reticulocyte proliferation and globin expression in phlebotomized anemic baboons; set-up: species or system baboon
# Method: Experiments were performed to determine if administration of the chemical compositions could induce fetal globin gene expression in an in vivo model similar to humans (S. P. Perrin et al., Brit. J. Haematol. 88:555-61, 1994). Briefly, chemicals were prepared as sterile pharmaceutical solutions in pH adjusted sterile water. A variety of chemical compositions were administered sequentially to some baboons. After administration of one compound, a wash-out period with no compound administration was maintained until reticulocytes returned to base line prior to administration of the next compound. This was done, at least partly, to compare the magnitude of response which occurred within the same individual animal to different compounds.
# Briefly, juvenile female baboons (2 years old) were catheterized with arterial and venous catheters and phlebotomized gradually every day to maintain a moderate anemia of 7.0 to 7.5 grams hemoglobin/dl. Fetal reticulocytes, the newly produced red blood cells containing fetal globin, were assayed using a monoclonal antibody against fetal globin (HbF) as described by G. Dover et al. (Blood 67:735-38, 1986). Briefly, blood was stained with two antibodies, one specific for reticulocytes and another against fetal globin protein. The amount of antibody bound cells was determined by FACS analysis. Globin chain synthesis was assayed as described by J. B. Clegg et al. (J. Mol. Biol. 19:91-108, 1966). Briefly, reticulocytes were radio-labeled with ^3H-leucine which was incorporated in equal proportions into actively synthesized globin chains. After incubation in leucine-free media, cells were washed, and globin proteins were separated and purified by column chromatography. Radioactivity incorporated into each peak is compared and the ratios of gamma to gamma plus beta globin calculated. Each animal served as its own control with baseline monitoring assays performed for 4-6 weeks before any drug was administered. Phlebotomy was continued daily, so that peripheral HbF levels in the animals were not considered to be accurate over the short treatment time-frames and were not monitored. Safety monitoring was performed by frequent physical examinations, quantitation of food eaten, activity and frequent chemistry and hematology monitoring. Complete blood counts were assayed before, during and after treatment. Results presented were not adjusted to account for the daily phlebotomy.
# [3] = test system: erythroid progenitor cells cultured from human cord blood; assay: Fetal globin expression in human cell cultures (3H-leucine labelled globin chains, densitometry); type: cell-based; conditions: for Gamma Increase: Exp. B, 12-13 days
# Method: Compositions were tested for activity in inducing fetal globin expression and protein production in erythroid progenitor cells cultured from human cord blood and analyzed as described by S. P. Perrine et al. (Blood 74: 454-60, 1989). Briefly, mononuclear cells were cultured in IMDM with 30% fetal calf serum and 2 units erythropoietin per ml to induce erythroid differentiation. Colonies were harvested on day 12-13, incubated with radio-labelled (^3H) leucine, and further incubated in leucine-free media, still in the presence of compounds, overnight. Globin composition in the erythroid cells was analyzed by laser densitometry of electrophoretically separated globin chains stained with Coomassie blue, and by autoradiography. Treated cells were incubated for 12-13 days (Table 2, Experiments A and B) or overnight (Table 2, Experiment C) in the presence of the indicated compounds and compared to untreated control cells cultured from the same human subject.
# [4] = test system: proximal promoter of the gamma globin gene in K562 cells; assay: Gamma globin promoter-neomycin (NEO) transfection, colony survival in G418; type: cell-based, human; conditions: 1 mM, 8 weeks
# Method: Gamma globin promoter-neomycin transfection experiments were performed to determine if compounds act by inducing an increase in activity from the proximal promoter of the gamma globin gene. Constructs containing 61 by of the proximal gamma globin promoter were linked to the reporter gene for neomycin phosphotransferase (NEO) and transfected into permissive K562 cells by electroporation. After 18 hours, transfected cells were passed at 10^3 cells per well into RPMI media containing G418 (neomycin), which kills all mammalian cells unless the gene for NEO is expressed. Phenoxyacetic acid and thiophenoxyacetic acid were added to some of the cells plated into the RPMI/G418 media at concentrations of 1 mM. Cultures were incubated for 8 weeks with media changes performed as needed. Colonies which survived and grew in the presence of G418 were scored and the number of such colonies was compared to those generated when the cells were plated into G418 media without the test compounds. No colonies in the 24 wells survived in the absence of compounds. There was a greater than 6-fold (>600%) increase in proportions of colonies surviving the presence of phenoxyacetic acid (6/24 wells) and a three-fold (300%) increase in survival in the presence of thiophenoxyacetic acid (3/24 wells).
# [5] = test system: system A transport in K562 cells and nucleated erythroblasts from fetal liver; assay: System A (neutral amino acid) transport, 3H-MAIB uptake; type: cell-based, human; conditions: 1 hour incubation; FIG. 12
# Method: Inhibition of nutrient uptake is undesirable for treatment of anemias. Methyl aminoisobutyric acid (MAIB) labeled with tritium (^3H) is normally taken up by system A amino acid transport. Cold (unlabeled) compounds were added to cultures containing ^3H-MAIB and incubated for 1 hour. Cells were harvested and the amount of ^3H taken up by cells was quantitated by scintillation counting.
structure (smiles),measurement,setting,value
"CCCC(=O)OCC(O)CO (stereo not shown) [MB, monobutyrin]",induction of fetal globin mRNA in human cells,[1],significantly increased
same,Gamma/Alpha (fetal globin mRNA proportional to α-globin mRNA),[1]; untreated 0.46,0.73
same,Gamma Globin mRNA (increase ↑),[1]; versus untreated,26% ↑
same,fetal reticulocytes above basal levels,"[2]; intravenous each day, 4 days, 500 to 2,000 mg/kg",220%
same,fetal reticulocytes after treatment,"[2]; intravenous each day, 4 days, 500 to 2,000 mg/kg, from 12%",27%
"CC(CO)C(N)=O (stereo not shown) [MHPP, 2 methyl-3-hydroxypropionamide, reference compound]",Gamma Increase,[3]; 0.05 mM,2.0%
same,Gamma Increase,[3]; 1.0 mM,−3.5%
same,expression of fetal globin (FIG. 4),[3]; concentrations above 0.25 mM,decreased the expression of fetal globin
same,expression of fetal globin (FIG. 4),[3]; concentrations below 0.25 mM,increased fetal globin expression
O=C(O)CSc1ccccc1 [thiophenoxyacetic acid],increase in proportions of colonies surviving G418,[4],300%
same,increase in proportions of colonies surviving G418,[4]; no colonies without compounds,three-fold
CCCC(=O)OCC(COC(=O)CCC)OC(=O)CCC [tributyrin],gamma globin expression after treatment,"[2]; intravenous 3 days, 500 to 750 mg/kg per day, from 0%",about 2.2 % of total non-alpha globin expression
same,fetal reticulocytes after treatment,"[2]; intravenous 3 days, 500 to 750 mg/kg per day, from 10%",14%
CC(=Cc1ccccc1)C(=O)O [α-methyl cinnamic acid],system A transport of amino acids (3H-MAIB uptake),[5],do not significantly alter
CC(Cc1ccccc1)C(=O)O (stereo not drawn) [α-methyl hydrocinnamic acid],rise of total hemoglobin,"[2]; baboon, infused 8 h/day, 5 days: 500 mg/kg 2 days, 700 mg/kg 2 days, 1,000 mg/kg 1 day, over 3 days",1.5 grams/dl
same,red blood cell count after treatment,"[2]; same regimen (500/700/1,000 mg/kg, 5 days), rose from 2.28",3.53 ×10^6 red blood cells per microliter
same,total number of reticulocytes after treatment,"[2]; same regimen (500/700/1,000 mg/kg, 5 days), rose from 5.6%",11%
same,total hemoglobin after treatment,"[2]; same regimen (500/700/1,000 mg/kg, 5 days), rose from 6.4",7.9 grams/dl
same,packed red blood cell volume after treatment,"[2]; same regimen (500/700/1,000 mg/kg, 5 days), rose from 19.5%",31.2 % of total blood volume
same,platelet count after treatment,"[2]; same regimen (500/700/1,000 mg/kg, 5 days), rose from 26.7",46.8 ×10^4 cells/μl
same,total fetal globin synthesis after treatment,"[2]; second baboon, 500 mg/kg 8 h, 700 mg/kg 8 h, 700 mg/kg 2, 4 and 6 h, after 5 days, from 4.0%",10.8%
same,rise of total hemoglobin,"[2]; second baboon, 500-700 mg/kg, 5 days",1.4 grams
same,red blood cell counts after treatment,"[2]; second baboon, 500-700 mg/kg, 5 days, from 2.3×10^6",2.82×10^6
same,total hemoglobin after treatment,"[2]; second baboon, 500-700 mg/kg, 5 days, from 4.6",6.0 g/dL
same,packed red blood cell volume after treatment,"[2]; second baboon, 500-700 mg/kg, 5 days, from 14.5%",20.2%
same,"white blood cell counts, maximum","[2]; second baboon, 500-700 mg/kg, 5 days, from 8,700","14,300"
same,"platelet counts, high","[2]; second baboon, 500-700 mg/kg, 5 days, from 328,000","486,000"
same,adverse effects,"[2]; third baboon, 5 days",No adverse affects were observed
same,fetal globin protein synthesis after treatment,"[2]; third baboon, after 5 days, from 0%",6.2 % of non-alpha globin
same,fetal hemoglobin producing reticulocytes after treatment,"[2]; third baboon, same dose, after 5 days (FIG. 8), from 0%",10%
same,system A transport of amino acids (3H-MAIB uptake),[5],caused no significant inhibition and actually increased uptake of nutrients into cells
